Measured values: patent US4835176A, “Glycookadaic acid, preparation thereof and use thereof” (priority 1987, dated 1989)
Converted amounts (≈) assume the structure as drawn. “Also recorded” adds a separate entry of the source.

Tests used:
[1] = system: lipoprotein lipase (LPL) of 3T3-L1 cells; assay: Recovery effect on cachectin/TNF-induced reduction of lipoprotein lipase (LPL) in adipocytes; format: cell-based
Experimental: (§1) 3T3-L1 cells (5×10^4 cells per well) were cultivated in wells of 48-well test plate for about one week until the cell growth reached became confluent. Test drug and 4×10^-10 ^- 10 g/ml (32 unit/ml as TNF activity) of recombinant human TNF (rHu-TNF) were added, and the cultivation was further continued.
(§2) After 20 hours, the test drug and rHu-TNF were removed. Then 10 unit/ml of heparin was added, and after 90 min., activity of lipoprotein lipase (LPL) isolated from 3T3-L1 cell by heparin was measured according to the method as described in Nelsson-Ehle, P., et al., J. Lipid Res., 17, 536 (1976).
(§3) On the LPL activity measured, the recovery on the reduction of lipoprotein lipase production was calculated by the following formula: [formula]
(§4) ^1 The experiment was performed in the presence of rHu TNF (32

[2] = as above; format: cell-based; conditions: mouse, 3t3-l1 cells; read-out: Concentration at which OK exhibits cytotoxicity
Experimental: as §1, §2, §3, §4

B-16 melanoma cell = assay: Cytotoxicity, 50% growth inhibition of B-16 melanoma cell; format: cell-based
Experimental: (§5) B-16 melanoma cell, P388 leukemia cell or L 929 cell was cultivated together with a prescribed amount of a test drug on a 24-well or 96-well test plate and the number of living cells was measured one day or 3 days later to know the 50% growth inhibition concentration.

L 929 cells = assay: Effect on cytotoxic activity of TNF; format: cell-based
Experimental: L 929 cells (10^4 cells/well) was cultivated on a test plate having 96 wells, and after 24 hours, a test drug and recombinant human-tumor necrosis factor (rHu - TNF) were added thereto such that rHu - TNF became 2.5×10^-11 g/ml (TNF activity of 2 unit/ml), and then, after 24 hours, the number of living cells was measured.
The effect of test drug on the cytotoxicity of TNF was calculated according to the above-mentioned formula (A) and shown by "%" value.
^1 The experiments were effected in the presence of TNF (2 units/ml)

P388 leukemia cell = assay: Cytotoxicity, 50% growth inhibition of P388 leukemia cell; format: cell-based; conditions: Mus musculus, read-out: 50% growth inhibition concentration (IC50)
Experimental: as §5

[3] = Acute toxicity, i.p. injection in BDF1 mouse; format: in vivo; conditions: in vivo, ip, 5 weeks old, female, intraperitoneal, read-out: 50% Lethal dose (LD50)
Experimental: (§6) A test drug was injected into the peritoneal cavity of BDF1 mouse (5 weeks old, female) to measure 50% lethal dose (LD50).

L 929 cell = assay: Cytotoxicity, 50% growth inhibition of L 929 cell; format: cell-based
Experimental: as §5

Solubility = format: physicochemical
Acid or base = format: physicochemical
Stability = format: physicochemical
BDF1 mouse = assay: Acute toxicity, i.p. injection in BDF1 mouse; format: in vivo
Experimental: as §6

Molecule | Effect on lowered LPL production (in words) ([1]; OK, even at 0.1 μg/ml) | MCC [2] | IC50 (B-16 melanoma cell; Mus musculus, B16, 24 h, B-16 melanoma, cultivated for one day, read-out: 50% growth inhibition concentration (IC50)) | Effect on cytolytic activity of TNF (in words) (L 929 cells) | IC50 (P388 leukemia cell) | LD50 [3] | IC50 (L 929 cell; Mus musculus, L929, read-out: 50% growth inhibition concentration (IC50)) | Recovery of LPL generation in adipocytes (in words) [1] | Concentration with effect of recovering from the lowering of production of lipoprotein lipase ([1]; 3T3-L1 cells with rHu-TNF) | 50% growth inhibition concentration (IC50) (B-16 melanoma cell; B-16 melanoma, cultivated for one day) | Cytotoxicity compared with OK (B-16 melanoma cell; all cell species of Table 1) | Solubility (Solubility; acetone or chloroform) | Solubility (Solubility; methanol, ethanol or pyridine) | Acid or base (Acid or base) | Stability (Stability; acid) | Stability (Stability; alkali) | Toxicity (in words) (BDF1 mouse) | 50% Lethal dose (LD50) (BDF1 mouse; 5 weeks old, female, intraperitoneal) | LD50 of GOK relative to that of OK (BDF1 mouse; intraperitoneal) | 50% growth inhibition concentration (IC50) (L 929 cell)
C=C1C(O)C2OC3(CCC(C=CC(C)C4CC(C)=CC5(OC(CC(C)(O)C(=O)O)CCC5O)O4)O3)CCC2OC1C(O)CC(C)C1OC2(CCCCO2)CCC1C (stereo not drawn) [OK, okadaic acid] | did not exhibit the effect of inhibition | 0.1 µg/mL | 0.018 µg/mL (≈ 0.0224 µM) | Neither GOK nor OK affected the cytolytic activity of TNF | 0.024 µg/mL (≈ 0.0298 µM) | 0.16 mg/kg | 0.084 µg/mL (≈ 0.104 µM) | – | – | – | – | – | – | – | – | – | – | – | – | –
glycookadaic acid [GOK] | – | – | – | Neither GOK nor OK affected the cytolytic activity of TNF; also recorded: does not suppress the cytotoxic activity of cachectin/TNF toward cancer cells | – | – | – | specifically recovers the lowering effect on the generation of lipoprotein lipase in adipocytes | 3 to 10 µg/mL | 19 µg/mL | much weaker than that of OK | Insoluble or sparsely soluble | Easily soluble | Weekly acidic substance | Unstable to acid | Relatively stable to alkali | toxicity of GOK is low; also recorded: far safer drug than OK | > 16 mg/kg | ≥ 100 times | 28 µg/mL
